Tested on: CN0375-F725-PDC KRAS spheroid viability
Assay: Anticancer human tumor CN0375-F725-PDC patient-derived colon carcinoma cell line growth inhibition [KRAS2]
Details: spheroids with HUVEC and MSC; for IC50: curve of first compound; for viability, T/C: stronger effect = lower value
How it was run: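 Combination screen of spheroid viability in tumor-cell co-cultures with endothelial (HUVEC) and mesenchymal stem cell stroma. Each agent was tested in half-log dilutions, topping at clinical Cmax or at 10 microM without a known Cmax.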
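Note: spheroids exposed to agents for 7 days.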

## CC(C)NCC(C(=O)N1CCN(c2ncnc3c2C(C)CC3O)CC1)c1ccc(Cl)cc1 (stereo not given) + CC1OCC2(CCN(c3cnc(Sc4ccnc(N)c4Cl)c(N)n3)CC2)C1N
Second compound 0.1 µM
  IC50: > 10 µM
Second compound 0.316 µM
  IC50: > 10 µM
Second compound 1 µM
  IC50: > 10 µM
Second compound 3.16 µM
  IC50: > 10 µM
Second compound 10 µM
  IC50: 5.95 µM
Second compound 0.1 µM, first compound 0.0316 µM
  viability, T/C: 100%
Second compound 0.1 µM, first compound 0.1 µM
  viability, T/C: 95.9%
Second compound 0.1 µM, first compound 0.316 µM
  viability, T/C: 94.4%
Second compound 0.1 µM, first compound 1 µM
  viability, T/C: 88.7%
Second compound 0.1 µM, first compound 3.16 µM
  viability, T/C: 87.7%
Second compound 0.1 µM, first compound 10 µM
  viability, T/C: 71.7%
Second compound 0.316 µM, first compound 0.0316 µM
  viability, T/C: 93.6%
Second compound 0.316 µM, first compound 0.1 µM
  viability, T/C: 93.5%
Second compound 0.316 µM, first compound 0.316 µM
  viability, T/C: 89.9%
Second compound 0.316 µM, first compound 1 µM
  viability, T/C: 82%
Second compound 0.316 µM, first compound 3.16 µM
  viability, T/C: 81.6%
Second compound 0.316 µM, first compound 10 µM
  viability, T/C: 70.8%
Second compound 1 µM, first compound 0.0316 µM
  viability, T/C: 90.5%
Second compound 1 µM, first compound 0.1 µM
  viability, T/C: 88.7%
Second compound 1 µM, first compound 0.316 µM
  viability, T/C: 84.3%
Second compound 1 µM, first compound 1 µM
  viability, T/C: 74.8%
Second compound 1 µM, first compound 3.16 µM
  viability, T/C: 75.9%
Second compound 1 µM, first compound 10 µM
  viability, T/C: 66.2%
Second compound 3.16 µM, first compound 0.0316 µM
  viability, T/C: 87.4%
Second compound 3.16 µM, first compound 0.1 µM
  viability, T/C: 83.9%
Second compound 3.16 µM, first compound 0.316 µM
  viability, T/C: 76.5%
Second compound 3.16 µM, first compound 1 µM
  viability, T/C: 70.3%
Second compound 3.16 µM, first compound 3.16 µM
  viability, T/C: 63.2%
Second compound 3.16 µM, first compound 10 µM
  viability, T/C: 56.5%
Second compound 10 µM, first compound 0.0316 µM
  viability, T/C: 71.3%
Second compound 10 µM, first compound 0.1 µM
  viability, T/C: 68.3%
Second compound 10 µM, first compound 0.316 µM
  viability, T/C: 62.3%
Second compound 10 µM, first compound 1 µM
  viability, T/C: 54.9%
Second compound 10 µM, first compound 3.16 µM
  viability, T/C: 56.4%
Second compound 10 µM, first compound 10 µM
  viability, T/C: 46.3%

— PubChem BioAssay AID1963860 (Molecular Pharmacology Branch, DTP, NCI, 2024)
